Assay results published in PMC11443485, “Euphane and Tirucallane Triterpenes with Trypanocidal Activity from Euphorbia desmondii” (Journal of Natural Products, 2024).
Read-outs that look alike come from different tables or passages of the source.

Legend:
[1] = tested on: T. cruzi epimastigotes (Y strain); experiment: Trypanocidal activity against T. cruzi epimastigotes, Cell Proliferation Kit II (XTT) assay; type: cell-based, Trypanosoma cruzi; details: for Selectivity Index: T. cruzi epimastigotes over the host cell (RAW264.7 macrophages); for Increase of the proliferation of the epimastigotes: at the lower micromolar concentrations, trypanocidal at higher concentrations; for IC50: epimastigotes, Y strain, 72 h at 28 °C, XTT, read-out: T. cruzi epimastigote WT-Y IC50; for Effect on T. cruzi epimastigote proliferation (Figure S130): mean ± SD of three independent experiments each in triplicates
Description: Epimastigotes of T. cruzi [Y strain (ATCC 50832)] were maintained in weekly passages in a liver infusion tryptose (LIT) medium supplemented with 10% heat-inactivated fetal bovine serum (hiFBS) at 28 °C, as described previously.[33] The epimastigote cultures in the logarithmic-growth phase (1–5 × 10^7 parasites/mL) were used for the experiments unless stated otherwise. The green fluorescent protein (GFP)-overexpressing epimastigotes were generated by transfection using pTREX-n-eGFP, a gift from Rick Tarleton (Addgene plasmid # 62544; http://n2t.net/addgene:62544;RRID:Addgene_62544), as described previously. The GFP-expressing epimastigotes were cultured in LIT medium supplemented with 10% hiFBS and 500 μg/mL G418.
(§1) To assess the selectivities of the isolated compounds, their trypanocidal activities against the epimastigotes were assessed by the Cell Proliferation Kit II (XTT) assay, as previously described.[11] Briefly, 1.5 × 10^5 epimastigotes were seeded per well in 96-well plates. The compounds were added at a single concentration, 10 μM (for the initial screening experiments) or six concentrations ranging from 10–0.3 μM for 72 h at 28 °C. In all the experiments, benznidazole was used as the positive control. Following the incubation period, the plates were examined under a microscope for sterility and growth of controls. To the plates, 50 μL of XTT and PMS (Phenazine methosulfate, Sigma-Aldrich, MO, USA) solution (XTT and PMS at 0.5 and 0.025 mg/mL, respectively) was added, and the plates were then incubated at 28 °C for 2.5 h. The parasites were fixed by the addition of 50 μL of MeOH for 15 min before the absorbance was measured at 490 nm on a Tecan plate reader. Results were expressed as percentage cell viability relative to vehicle control or IC50 values calculated by GraphPad Prism version 8.0. All assessments were performed in triplicate in at least two independent experiments.

RAW264.7 macrophages = experiment: Cytotoxicity in RAW264.7 macrophages (mammalian host cells); type: cell-based; details: host cell cytotoxicity, read-out: RAW 264.7 IC50
Description: [The procedure below names another organism; the source lists this organism under the same test.] To biologically characterize the isolated triterpenoids for their trypanocidal activities, their cytotoxicities in RAW264.7 macrophages (mammalian host cells) and T. cruzi epimastigotes were analyzed.
as §1, with “The compounds were added at a single concentration, 10 μM (for the initial screening experiments) or six concentrations ranging from 10–0.3 μM for 72 h at 28 °C.” left out

[2] = tested on: T. cruzi amastigotes in infected RAW264.7 cells; experiment: Amastigote replication in host cells: FACS quantitation of GFP parasites released from infected RAW264.7 cells; type: cell-based, Trypanosoma cruzi; details: GFPY parasite release from infected RAW264.7 cells, FACS after 6 days, mean ± SD of three independent experiments
Description: Figure 3 Inhibition activity of 1 against amastigote replication in the host cells. […] (A) Representative brightfield microscopic image of CCL39 fibroblasts infected with Trypanosoma cruzi with amastigotes (arrow). […] (C) Inhibition curves of compound 1 and the positive control, benznidazole, of the GFPY parasite release from the infected RAW264.7 cells were measured by fluorescence-activated cell sorting (FACS) after 6 days.
Fluorescence-activated cell sorting (FACS)-based quantitation of released parasites from infected RAW264.7 cells: The host cells were seeded in 24-well plates at densities of 40,000 and 10,000 cells/mL. The cells were allowed to adhere for 24 h, after which they were infected with trypomastigotes that were harvested by the swim-out procedure described above at a multiplicity of 10. On the next day, the noninternalized trypomastigotes were washed off, and fresh RPMI with 2% fetal bovine serum was added to the wells along with the test substance. In all of the experiments, the screening was performed in triplicate, including tests with DMSO and benznidazole controls. The released parasites were fixed using 4% paraformaldehyde in phosphate-buffered saline for 1 h, after which the samples were analyzed by FACS (BD Biosciences), as described previously.[11]

[3] = Trypanosoma cruzi, RAW264.7, 144 h

## 3β-hydroxy-27-nor-tirucalla-8-en-7,11,25-trione [Compound 12]
[1]
  Selectivity Index: 6.6
  Increase of the proliferation of the epimastigotes: 15–30%
  IC50: 3.7 µM
  Effect on T. cruzi epimastigote proliferation (Figure S130): significant increase
RAW264.7 macrophages
  IC50: 24.4 µM

## C[C@H](C/C=C/C(C)(C)OO)[C@@H]1CC[C@]2(C)C3=C(CC[C@@]12C)[C@@]1(C)CC[C@H](O)C(C)(C)[C@@H]1CC3=O [Compound 1, (23E)-25-hydroperoxyeupha-8,23-diene-3β-ol-7-one]
[1]
  Selectivity Index: 8.5
[1]; Trypanosoma cruzi
  IC50: 4.5 µM
RAW264.7 macrophages; Mus musculus
  IC50: 38.1 µM
[2]; listed as desmondiin A
  IC50: 2.4 ± 0.3 µM
[2]; [3]
  IC50: 2.5 ± 0.3 µM

## CC(C)C(=O)CC[C@@H](C)[C@@H]1CC[C@]2(C)C3=C(CC[C@@]12C)[C@@]1(C)CC[C@H](O)C(C)(C)[C@@H]1CC3=O [Compound 2, eupha-8-ene-3β-ol-7,24-dione]
[1]
  Selectivity Index: 6.3
  Effect on T. cruzi epimastigote proliferation (Figure S130): significant increase
[1]; Trypanosoma cruzi
  IC50: 5 µM
RAW264.7 macrophages; Mus musculus
  IC50: 31.5 µM

## CC(=O)CCC[C@H](C)[C@@H]1CC[C@]2(C)C3=C(CC[C@@]12C)[C@@]1(C)CC[C@H](O)C(C)(C)[C@@H]1CC3=O [Compound 3, Desmondiin D]
[1]
  Selectivity Index: 7.8
[1]; Trypanosoma cruzi
  IC50: 4 µM
RAW264.7 macrophages; Mus musculus
  IC50: 31 µM

## C[C@@H](C/C=C/C(C)(C)OO)[C@@H]1CC[C@]2(C)C3=C(C(OO)C[C@@]12C)[C@@]1(C)CC[C@H](O)C(C)(C)[C@@H]1CC3=O (stereo partly drawn) [Compound 5, (23E)-11,25-dihydroperoxytirucalla-8,23-dien-3β-ol-7-one]
[1]
  Selectivity Index: 5.4
  Increase of the proliferation of the epimastigotes: 15–30%
  Effect on T. cruzi epimastigote proliferation (Figure S130): significant increase
[1]; Trypanosoma cruzi
  IC50: 3.4 µM
RAW264.7 macrophages; Mus musculus
  IC50: 18.4 µM

## C/C(C=O)=C\CC[C@H](C)[C@@H]1CC[C@]2(C)C3=C([C@@H](O)C[C@@]12C)[C@@]1(C)CC[C@H](O)C(C)(C)[C@@H]1CC3=O [Compound 7, Desmondiin H]
[1]
  Selectivity Index: 6.4
[1]; Trypanosoma cruzi
  IC50: 3.7 µM
RAW264.7 macrophages; Mus musculus
  IC50: 23.5 µM

## CC(C)=CCC[C@@H](C)[C@@H]1CC[C@]2(C)C3=C(C(=O)C[C@@]12C)[C@@]1(C)CC[C@H](O)C(C)(C)[C@@H]1C[C@H]3O [Compound 8, eupha-8,24-dien-3β,7α-diol-11-one]
[1]
  Selectivity Index: 5.8
  Increase of the proliferation of the epimastigotes: 15–30%
  Effect on T. cruzi epimastigote proliferation (Figure S130): significant increase
[1]; Trypanosoma cruzi
  IC50: 4.9 µM
RAW264.7 macrophages; Mus musculus
  IC50: 28.4 µM

## O=C(Cn1ccnc1[N+](=O)[O-])NCc1ccccc1 [benznidazole, reference compound]
[2]
  IC50: 3.2 ± 0.5 µM
[2]; [3]
  IC50: 3.6 ± 0.4 µM
